Measurements reported in ChEMBL document CHEMBL5653615 (J Biol Chem, 2013).

Legend:
[1] = molecular target: Cyclin-dependent kinase 5/CDK5 activator 1 (Homo sapiens) (UniProt Q00535+Q15078); experiment: Inhibition of human CDK5/p25 at 18.6 nM by HotSpot assay relative to control; type: protein-complex assay
[2] = molecular target: T1, Serine/threonine-protein kinase TBK1 (Homo sapiens) (UniProt Q9UHD2); experiment: Inhibition of human TBK1 at 18.6 nM by HotSpot assay relative to control
T1 sequence (whole entry): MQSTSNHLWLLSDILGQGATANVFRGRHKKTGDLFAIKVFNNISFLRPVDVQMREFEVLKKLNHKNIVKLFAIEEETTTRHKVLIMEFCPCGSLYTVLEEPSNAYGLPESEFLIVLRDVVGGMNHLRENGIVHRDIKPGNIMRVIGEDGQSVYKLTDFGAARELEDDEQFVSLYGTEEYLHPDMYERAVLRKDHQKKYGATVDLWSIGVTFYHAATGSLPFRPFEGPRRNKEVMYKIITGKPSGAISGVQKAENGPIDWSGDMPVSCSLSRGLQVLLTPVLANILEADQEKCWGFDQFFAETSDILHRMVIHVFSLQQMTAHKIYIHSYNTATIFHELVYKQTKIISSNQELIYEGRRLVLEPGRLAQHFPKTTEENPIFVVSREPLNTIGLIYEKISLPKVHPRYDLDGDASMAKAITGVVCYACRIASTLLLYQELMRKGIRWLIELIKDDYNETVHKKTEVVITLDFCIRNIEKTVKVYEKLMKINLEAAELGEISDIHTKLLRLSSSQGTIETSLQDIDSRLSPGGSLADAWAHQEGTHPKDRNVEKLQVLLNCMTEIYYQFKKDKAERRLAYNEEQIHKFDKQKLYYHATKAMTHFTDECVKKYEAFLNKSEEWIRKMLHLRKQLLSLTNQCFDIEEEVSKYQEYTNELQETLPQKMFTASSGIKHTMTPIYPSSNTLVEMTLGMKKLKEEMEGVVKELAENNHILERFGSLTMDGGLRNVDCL

[3] = molecular target: RAC-gamma serine/threonine-protein kinase (Homo sapiens) (UniProt Q9Y243); experiment: Inhibition of human AKT3 at 18.6 nM by HotSpot assay relative to control
[4] = molecular target: Serine/threonine-protein kinase N1 (Homo sapiens) (UniProt Q16512); experiment: Inhibition of human PRK1 at 18.6 nM by HotSpot assay relative to control
[5] = molecular target: Casein kinase I isoform alpha (Homo sapiens) (UniProt P48729); experiment: Inhibition of human CK1a1 at 1.82 nM by HotSpot assay relative to control
[6] = molecular target: T2, cGMP-dependent protein kinase 2 (Homo sapiens) (UniProt Q13237); experiment: Inhibition of human PRKG2 at 1.82 nM by HotSpot assay relative to control
T2 sequence (whole entry): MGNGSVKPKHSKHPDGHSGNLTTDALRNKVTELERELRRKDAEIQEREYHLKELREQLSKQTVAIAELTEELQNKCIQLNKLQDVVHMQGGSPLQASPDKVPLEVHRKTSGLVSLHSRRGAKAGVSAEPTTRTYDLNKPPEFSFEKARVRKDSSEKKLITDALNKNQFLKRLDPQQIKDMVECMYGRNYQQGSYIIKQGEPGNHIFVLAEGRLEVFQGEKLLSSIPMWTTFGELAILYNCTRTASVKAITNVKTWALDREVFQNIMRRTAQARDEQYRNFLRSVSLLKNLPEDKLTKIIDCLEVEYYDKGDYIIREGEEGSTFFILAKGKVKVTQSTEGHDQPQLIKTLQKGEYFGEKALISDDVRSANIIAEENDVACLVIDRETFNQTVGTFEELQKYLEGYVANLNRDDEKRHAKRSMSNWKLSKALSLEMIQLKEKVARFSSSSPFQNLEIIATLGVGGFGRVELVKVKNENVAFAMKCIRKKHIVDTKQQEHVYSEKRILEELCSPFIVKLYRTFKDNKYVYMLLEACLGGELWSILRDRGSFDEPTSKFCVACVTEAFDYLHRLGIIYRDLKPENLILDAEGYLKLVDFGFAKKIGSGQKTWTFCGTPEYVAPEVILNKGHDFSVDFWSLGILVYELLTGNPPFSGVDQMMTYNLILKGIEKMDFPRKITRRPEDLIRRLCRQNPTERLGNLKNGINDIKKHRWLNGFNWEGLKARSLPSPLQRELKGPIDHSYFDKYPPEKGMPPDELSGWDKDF

[7] = molecular target: Mitogen-activated protein kinase kinase kinase kinase 4 (Homo sapiens) (UniProt O95819); experiment: Inhibition of human HGK at 1.82 nM by HotSpot assay relative to control
[8] = molecular target: Ribosomal protein S6 kinase alpha-2 (Homo sapiens) (UniProt Q15349); experiment: Inhibition of human RSK3 at 1.82 nM by HotSpot assay relative to control
[9] = molecular target: Myosin light chain kinase, smooth muscle (Homo sapiens) (UniProt Q15746); experiment: Inhibition of human MYLK at 1.82 nM by HotSpot assay relative to control
[10] = molecular target: Myosin light chain kinase 2, skeletal/cardiac muscle (Homo sapiens) (UniProt Q9H1R3); experiment: Inhibition of human MYLK2 at 1.82 nM by HotSpot assay relative to control
[11] = molecular target: G protein-coupled receptor kinase 4 (Homo sapiens) (UniProt P32298); experiment: Inhibition of human GRK4 at 1.82 nM by HotSpot assay relative to control
[12] = molecular target: SRSF protein kinase 3 (Homo sapiens) (UniProt Q9UPE1); experiment: Inhibition of human STK23 at 1.82 nM by HotSpot assay relative to control
[13] = molecular target: Angiopoietin-1 receptor (Homo sapiens) (UniProt Q02763); experiment: Inhibition of human TEK at 1.82 nM by HotSpot assay relative to control
Sequence of Angiopoietin-1 receptor (Homo sapiens) (Q02763 whole entry): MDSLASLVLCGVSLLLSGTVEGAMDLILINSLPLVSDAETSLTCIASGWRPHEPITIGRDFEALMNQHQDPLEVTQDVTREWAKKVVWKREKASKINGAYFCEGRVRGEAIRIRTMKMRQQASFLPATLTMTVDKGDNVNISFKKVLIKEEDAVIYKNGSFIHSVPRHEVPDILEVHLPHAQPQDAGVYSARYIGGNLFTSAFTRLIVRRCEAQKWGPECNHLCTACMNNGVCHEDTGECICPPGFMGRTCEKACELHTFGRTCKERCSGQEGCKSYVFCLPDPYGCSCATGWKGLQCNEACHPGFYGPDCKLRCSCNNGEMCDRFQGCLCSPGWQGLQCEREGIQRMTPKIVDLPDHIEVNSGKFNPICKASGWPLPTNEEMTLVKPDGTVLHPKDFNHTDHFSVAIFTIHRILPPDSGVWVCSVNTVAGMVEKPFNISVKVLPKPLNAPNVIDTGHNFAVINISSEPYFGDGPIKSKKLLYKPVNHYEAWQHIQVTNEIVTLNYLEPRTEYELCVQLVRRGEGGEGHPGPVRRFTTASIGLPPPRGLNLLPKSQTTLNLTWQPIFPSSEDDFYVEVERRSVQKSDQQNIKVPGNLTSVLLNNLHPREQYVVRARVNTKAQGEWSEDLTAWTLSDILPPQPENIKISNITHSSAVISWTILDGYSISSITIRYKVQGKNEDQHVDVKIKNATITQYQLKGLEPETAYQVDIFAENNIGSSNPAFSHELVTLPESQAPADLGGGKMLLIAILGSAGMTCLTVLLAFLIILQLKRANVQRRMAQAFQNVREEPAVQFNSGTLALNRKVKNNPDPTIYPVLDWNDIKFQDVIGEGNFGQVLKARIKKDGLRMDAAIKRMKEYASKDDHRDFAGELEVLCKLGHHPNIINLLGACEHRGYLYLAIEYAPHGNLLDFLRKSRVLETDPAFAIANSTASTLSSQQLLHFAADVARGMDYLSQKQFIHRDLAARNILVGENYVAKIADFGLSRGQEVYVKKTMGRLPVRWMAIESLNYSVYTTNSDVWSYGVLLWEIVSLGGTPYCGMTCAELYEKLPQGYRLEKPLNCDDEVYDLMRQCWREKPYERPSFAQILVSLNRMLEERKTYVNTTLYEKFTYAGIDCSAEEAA

Sequence of Casein kinase I isoform alpha (Homo sapiens) (P48729 2-337 limits assumed): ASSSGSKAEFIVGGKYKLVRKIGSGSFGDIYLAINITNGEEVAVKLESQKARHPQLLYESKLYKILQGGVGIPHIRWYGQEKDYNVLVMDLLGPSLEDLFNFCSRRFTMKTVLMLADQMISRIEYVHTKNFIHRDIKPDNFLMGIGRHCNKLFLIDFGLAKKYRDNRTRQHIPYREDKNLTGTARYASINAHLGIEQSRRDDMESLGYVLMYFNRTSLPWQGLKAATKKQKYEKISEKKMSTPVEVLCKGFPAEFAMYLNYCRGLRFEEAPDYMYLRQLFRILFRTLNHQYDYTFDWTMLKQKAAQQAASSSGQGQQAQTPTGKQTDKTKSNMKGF
Sequence of Ribosomal protein S6 kinase alpha-2 (Homo sapiens) (Q15349 whole entry): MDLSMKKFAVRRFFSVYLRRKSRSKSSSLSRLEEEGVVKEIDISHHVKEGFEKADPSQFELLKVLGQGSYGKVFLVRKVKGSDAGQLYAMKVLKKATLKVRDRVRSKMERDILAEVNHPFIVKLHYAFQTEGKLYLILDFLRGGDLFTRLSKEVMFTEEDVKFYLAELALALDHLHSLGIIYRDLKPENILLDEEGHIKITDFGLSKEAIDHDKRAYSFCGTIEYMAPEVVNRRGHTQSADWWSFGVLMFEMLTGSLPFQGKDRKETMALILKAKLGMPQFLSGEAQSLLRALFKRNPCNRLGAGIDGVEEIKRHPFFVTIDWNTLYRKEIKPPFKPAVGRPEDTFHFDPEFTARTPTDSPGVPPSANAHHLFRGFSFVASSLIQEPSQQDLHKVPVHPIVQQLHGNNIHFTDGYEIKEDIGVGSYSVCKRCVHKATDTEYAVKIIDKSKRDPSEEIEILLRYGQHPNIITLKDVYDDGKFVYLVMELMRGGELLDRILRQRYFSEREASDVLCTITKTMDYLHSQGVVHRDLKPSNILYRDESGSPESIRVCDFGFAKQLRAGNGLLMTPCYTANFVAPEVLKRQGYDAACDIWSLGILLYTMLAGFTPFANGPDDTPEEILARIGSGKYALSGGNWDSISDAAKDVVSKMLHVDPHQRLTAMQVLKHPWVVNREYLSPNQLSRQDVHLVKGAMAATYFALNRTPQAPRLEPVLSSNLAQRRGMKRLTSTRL
Sequence of Myosin light chain kinase 2, skeletal/cardiac muscle (Homo sapiens) (Q9H1R3 whole entry): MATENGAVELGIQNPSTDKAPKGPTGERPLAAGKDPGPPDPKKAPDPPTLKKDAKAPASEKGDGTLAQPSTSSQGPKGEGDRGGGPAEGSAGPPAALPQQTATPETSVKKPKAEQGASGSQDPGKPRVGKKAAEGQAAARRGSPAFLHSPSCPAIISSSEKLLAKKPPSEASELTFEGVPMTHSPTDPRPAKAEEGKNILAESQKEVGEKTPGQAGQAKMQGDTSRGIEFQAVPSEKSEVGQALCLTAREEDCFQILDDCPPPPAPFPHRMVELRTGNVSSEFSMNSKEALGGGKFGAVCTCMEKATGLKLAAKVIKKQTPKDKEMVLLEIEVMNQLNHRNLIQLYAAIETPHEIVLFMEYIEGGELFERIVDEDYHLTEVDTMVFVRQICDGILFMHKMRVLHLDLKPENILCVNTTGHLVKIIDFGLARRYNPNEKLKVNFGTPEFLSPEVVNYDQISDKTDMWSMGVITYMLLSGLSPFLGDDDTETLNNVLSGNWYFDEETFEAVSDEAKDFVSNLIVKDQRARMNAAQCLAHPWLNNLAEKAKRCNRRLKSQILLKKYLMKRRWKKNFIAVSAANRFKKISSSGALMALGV
Sequence of Myosin light chain kinase, smooth muscle (Homo sapiens) (Q15746 whole entry): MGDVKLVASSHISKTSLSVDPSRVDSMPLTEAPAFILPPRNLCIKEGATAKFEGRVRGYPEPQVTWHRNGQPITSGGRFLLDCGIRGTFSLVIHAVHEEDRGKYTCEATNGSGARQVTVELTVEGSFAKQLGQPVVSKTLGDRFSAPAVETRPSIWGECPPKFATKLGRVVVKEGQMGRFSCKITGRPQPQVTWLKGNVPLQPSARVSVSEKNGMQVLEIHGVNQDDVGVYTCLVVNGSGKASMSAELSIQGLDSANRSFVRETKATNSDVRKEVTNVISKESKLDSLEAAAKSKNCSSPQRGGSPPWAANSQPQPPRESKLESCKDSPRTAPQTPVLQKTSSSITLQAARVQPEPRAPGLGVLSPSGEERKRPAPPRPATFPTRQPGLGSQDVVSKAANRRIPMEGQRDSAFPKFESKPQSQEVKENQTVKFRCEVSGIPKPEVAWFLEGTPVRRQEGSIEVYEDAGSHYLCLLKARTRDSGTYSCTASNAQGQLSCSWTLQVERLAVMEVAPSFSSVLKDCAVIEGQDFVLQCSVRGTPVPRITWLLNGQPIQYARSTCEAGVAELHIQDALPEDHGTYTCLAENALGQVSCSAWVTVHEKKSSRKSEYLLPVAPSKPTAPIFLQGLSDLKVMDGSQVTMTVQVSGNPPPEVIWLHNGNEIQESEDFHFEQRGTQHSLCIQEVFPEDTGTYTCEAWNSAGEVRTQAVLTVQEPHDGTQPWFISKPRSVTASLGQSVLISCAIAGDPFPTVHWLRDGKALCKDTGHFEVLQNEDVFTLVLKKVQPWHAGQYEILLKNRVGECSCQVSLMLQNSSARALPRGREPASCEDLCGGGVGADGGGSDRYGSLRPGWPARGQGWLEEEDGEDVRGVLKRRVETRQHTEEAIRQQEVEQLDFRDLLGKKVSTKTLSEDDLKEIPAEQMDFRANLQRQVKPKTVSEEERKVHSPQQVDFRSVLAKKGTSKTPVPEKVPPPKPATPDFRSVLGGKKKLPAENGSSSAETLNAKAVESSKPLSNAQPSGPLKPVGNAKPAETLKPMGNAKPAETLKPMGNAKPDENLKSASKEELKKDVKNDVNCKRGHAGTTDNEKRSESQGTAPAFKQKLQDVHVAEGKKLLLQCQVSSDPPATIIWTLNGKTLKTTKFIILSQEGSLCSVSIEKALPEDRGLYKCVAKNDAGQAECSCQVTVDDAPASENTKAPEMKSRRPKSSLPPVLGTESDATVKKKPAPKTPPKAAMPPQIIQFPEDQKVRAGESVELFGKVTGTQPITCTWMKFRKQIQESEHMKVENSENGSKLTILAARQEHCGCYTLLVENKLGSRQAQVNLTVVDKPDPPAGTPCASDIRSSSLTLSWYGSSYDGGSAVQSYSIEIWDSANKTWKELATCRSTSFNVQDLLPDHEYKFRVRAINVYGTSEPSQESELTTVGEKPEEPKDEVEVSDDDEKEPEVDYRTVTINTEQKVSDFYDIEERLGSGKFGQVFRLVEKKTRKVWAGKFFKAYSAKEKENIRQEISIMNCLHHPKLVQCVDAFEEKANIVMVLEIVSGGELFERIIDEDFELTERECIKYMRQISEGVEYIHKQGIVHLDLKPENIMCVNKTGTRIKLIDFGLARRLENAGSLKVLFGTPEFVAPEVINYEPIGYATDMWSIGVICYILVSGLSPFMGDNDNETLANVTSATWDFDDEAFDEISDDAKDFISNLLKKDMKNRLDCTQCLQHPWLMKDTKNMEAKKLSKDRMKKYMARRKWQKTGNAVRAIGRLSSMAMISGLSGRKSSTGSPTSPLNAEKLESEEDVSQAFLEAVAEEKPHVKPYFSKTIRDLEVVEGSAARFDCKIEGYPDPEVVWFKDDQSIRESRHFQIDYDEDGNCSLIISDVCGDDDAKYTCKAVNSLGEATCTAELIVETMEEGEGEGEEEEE

SMILES: C[C@]1(O)C[C@@H](c2nc(-c3ccc4ccc(-c5ccccc5)nc4c3)c3c(N)nccn32)C1
- inhibition [1]: 4.12%
- inhibition [2]: 5.59%
- inhibition [3]: -1.08%
- inhibition [4]: -7.69%

SMILES: C[C@@]1(C(=O)Nc2ccc(F)nc2)CCCN1c1nc(Nc2cc(C3CC3)n[nH]2)c2cccn2n1
- inhibition [5]: -1.84%
- inhibition [6]: -0.02%
- inhibition [7]: -4.23%
- inhibition [8]: -2.19%
- inhibition [9]: 2.24%
- inhibition [10]: -4.22%
- inhibition [11]: 0.72%
- inhibition [12]: -7.78%
- inhibition [13]: 4%
